Like-named read-outs stand apart in the source and are kept apart here.
Tests used:
[1] = molecular target: rat mGlu3 (Rattus norvegicus (Rat), UniProt P31422); experiment: mGlu3 Ca2+ flux assay; format: cell-based; settings: for remaining activity at 30 µM: amplitude of response at 30 μM test compound as % of maximal response to glutamate, read-out: rat mGlu3 Glu max (%)
Description: (§1) The cells were grown overnight at 37° C. in the presence of 5% CO2. […] Dye was removed, 20 μL of assay buffer was added, and the plate was incubated for 10 minutes at room temperature. Ca^2+ flux was measured using the Functional Drug Screening System (FDSS7000, Hamamatsu, Japan). […] All test compounds were dissolved and diluted to a concentration of 10 mM in 100% DMSO. […] Calcium fluorescence measures were recorded as fold over basal fluorescence; raw data was then normalized to the maximal response to glutamate. […] The raw data file containing all time points was used as the data source in the analysis template. This was saved by the FDSS as a tab-delimited text file. Data were normalized using a static ratio function (F/F0) for each measurement of the total 360 values per well divided by each well's initial value. […] This is sufficient time to capture the peak amplitude of the cellular calcium response. […] EC50 values for test compounds were generated by fitting the normalized values versus the log of the test compound concentration (in mol/L) using a 4 parameter logistic equation where none of the parameters were fixed. Each of the three values collected at each concentration of test compound were weighted evenly.

[2] = molecular target: rat mGlu5 (Rattus norvegicus (Rat), UniProt P31424); experiment: mGlu5 Ca2+ flux assay; format: cell-based; settings: for Emax at 30 µM: PAM, amplitude of response at 30 μM test compound as % of maximal response to glutamate, read-out: rat mGlu5 Glu max (%); for Fold selectivity (mGlu3 vs. mGlu5): ratio of rat mGlu5 EC50 or IC50 to rat mGlu3 IC50
Description: as §1, with “for 5” for “for 10”

[3] = NAM potency, decrease of glutamate EC80 response, >30,000 = no measurable activity, >10,000 = no plateau, read-out: rat mGlu3 IC50
[4] = read-out: rat mGlu5 EC50 or IC50
[5] = Table 2 compounds with X = NH, response at 30 μM compound as percentage of maximal glutamate response

Chain of rat mGlu3 (P31422 23-879): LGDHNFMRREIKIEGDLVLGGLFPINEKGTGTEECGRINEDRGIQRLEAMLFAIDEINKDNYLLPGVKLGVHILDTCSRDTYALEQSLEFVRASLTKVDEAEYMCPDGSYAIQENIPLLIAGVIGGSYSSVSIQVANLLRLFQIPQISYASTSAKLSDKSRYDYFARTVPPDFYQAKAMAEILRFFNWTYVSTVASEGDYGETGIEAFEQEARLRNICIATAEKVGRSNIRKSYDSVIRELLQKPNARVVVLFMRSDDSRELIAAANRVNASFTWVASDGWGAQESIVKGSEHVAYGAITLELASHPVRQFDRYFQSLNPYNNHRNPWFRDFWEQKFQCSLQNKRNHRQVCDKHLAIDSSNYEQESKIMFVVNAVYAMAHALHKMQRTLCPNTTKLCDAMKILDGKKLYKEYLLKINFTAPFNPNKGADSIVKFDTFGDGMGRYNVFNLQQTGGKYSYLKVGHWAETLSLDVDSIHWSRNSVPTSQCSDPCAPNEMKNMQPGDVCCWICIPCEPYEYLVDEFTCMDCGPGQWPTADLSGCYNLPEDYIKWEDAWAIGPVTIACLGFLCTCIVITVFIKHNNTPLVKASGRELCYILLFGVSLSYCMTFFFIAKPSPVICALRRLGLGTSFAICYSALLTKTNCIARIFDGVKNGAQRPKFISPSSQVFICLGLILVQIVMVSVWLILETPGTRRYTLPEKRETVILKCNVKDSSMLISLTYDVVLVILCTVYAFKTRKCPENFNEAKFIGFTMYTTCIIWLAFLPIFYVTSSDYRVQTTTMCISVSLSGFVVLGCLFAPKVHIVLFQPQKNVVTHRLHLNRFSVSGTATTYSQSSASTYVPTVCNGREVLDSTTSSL
Chain of rat mGlu5 (P31424 21-1203): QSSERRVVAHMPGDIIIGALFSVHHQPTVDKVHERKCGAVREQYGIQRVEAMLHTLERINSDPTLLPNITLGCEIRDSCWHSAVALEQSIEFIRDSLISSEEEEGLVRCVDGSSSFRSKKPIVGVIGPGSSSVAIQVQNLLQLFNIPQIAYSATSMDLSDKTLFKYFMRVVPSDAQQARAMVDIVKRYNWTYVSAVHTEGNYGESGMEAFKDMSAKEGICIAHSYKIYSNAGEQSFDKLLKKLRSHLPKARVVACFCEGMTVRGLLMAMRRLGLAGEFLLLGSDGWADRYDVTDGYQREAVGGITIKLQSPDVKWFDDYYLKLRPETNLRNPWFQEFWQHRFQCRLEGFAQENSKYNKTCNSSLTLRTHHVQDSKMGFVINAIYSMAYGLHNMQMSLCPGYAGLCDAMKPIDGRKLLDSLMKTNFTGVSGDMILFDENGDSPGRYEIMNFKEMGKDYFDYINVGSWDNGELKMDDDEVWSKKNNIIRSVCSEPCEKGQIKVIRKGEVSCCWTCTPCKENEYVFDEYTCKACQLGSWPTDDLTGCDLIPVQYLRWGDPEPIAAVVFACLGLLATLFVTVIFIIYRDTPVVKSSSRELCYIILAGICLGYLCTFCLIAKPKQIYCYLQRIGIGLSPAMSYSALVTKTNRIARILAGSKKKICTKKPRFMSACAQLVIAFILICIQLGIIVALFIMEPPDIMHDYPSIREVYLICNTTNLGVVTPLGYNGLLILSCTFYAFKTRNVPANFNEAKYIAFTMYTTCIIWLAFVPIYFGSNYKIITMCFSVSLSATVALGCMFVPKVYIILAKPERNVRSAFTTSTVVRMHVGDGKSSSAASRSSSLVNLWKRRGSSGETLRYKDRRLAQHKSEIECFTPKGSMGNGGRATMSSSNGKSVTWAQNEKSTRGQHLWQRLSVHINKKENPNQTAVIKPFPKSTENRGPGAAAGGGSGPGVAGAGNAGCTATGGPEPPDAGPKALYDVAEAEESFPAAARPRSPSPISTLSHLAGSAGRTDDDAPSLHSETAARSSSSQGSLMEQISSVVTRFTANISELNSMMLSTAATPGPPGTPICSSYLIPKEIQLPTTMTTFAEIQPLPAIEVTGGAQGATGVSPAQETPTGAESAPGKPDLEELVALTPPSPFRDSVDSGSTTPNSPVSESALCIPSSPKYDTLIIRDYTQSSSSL

Row | SMILES | IC50 [1, 3] [nM] | remaining activity at 30 µM [1] [%] | Emax at 30 µM [2] [%] | Fold selectivity (mGlu3 vs. mGlu5) [2] | EC50 [2, 4] [µM] | IC50 ([1]; read-out: rat mGlu3 IC50) [nM] | IC50 ([1]; Table 2 compounds with X = NH, read-out: mGlu3 IC50) [nM] | mGlu3 Glu max [1, 5] [%] | EC50 ([2]; Table 2 compounds with X = NH, read-out: mGlu5 EC50) [µM] | mGlu5 Glu max [2, 5] [%]
1 | O=C1c2cc(CNc3cccc(Cl)c3)nn2CCN1c1ccc(F)cc1 [Compound 9, 2-(((3-chlorophenyl)amino)methyl)-5-(4-fluorophenyl)-6,7-dihydropyrazolo[1,5-a]pyrazin-4(5H)-one] | 1210 | 2.95 | 82.8 | 2.74 | 3.32 |  |  |  |  | 
2 | O=C1c2cc(CNc3ccc(OC(F)F)cc3F)nn2CCN1c1ccc(Cl)cc1F [Compound 149, 5-(4-chloro-2-fluorophenyl)-2-(((4-(difluoromethoxy)-2-fluorophenyl)amino)methyl)-6,7-dihydropyrazolo[1,5-a]pyrazin-4(5H)-one] |  | 25.8 |  | >3 | > 30 | > 10000 |  |  |  | 
3 | COc1ccc(N(C)Cc2cc3n(n2)CCN(c2cc(F)cc(F)c2)C3=O)cc1 [Compound 104, 5-(3,5-difluorophenyl)-2-(((4-methoxyphenyl)(methyl)amino)methyl)-6,7-dihydropyrazolo[1,5-a]pyrazin-4(5H)-one] | 856 | 1.3 |  | >35 | > 30 |  |  |  |  | 
4 | C[C@H]1CN(c2ccc(F)cc2)C(=O)c2cc(CNc3ccc(F)cc3)nn21 [Compound 57, (S)-5-(4-fluorophenyl)-2-(((4-fluorophenyl)amino)methyl)-7-methyl-6,7-dihydropyrazolo[1,5-a]pyrazin-4(5H)-one] | 2320 | 0.96 | 56.7 | 2.38 | 5.53 |  |  |  |  | 
5 | O=C1c2cc(CNc3ccc(OC(F)F)cc3F)nn2CCN1c1cccc(Cl)c1 [Compound 150, 5-(3-chlorophenyl)-2-(((4-(difluoromethoxy)-2-fluorophenyl)amino)methyl)-6,7-dihydropyrazolo[1,5-a]pyrazin-4(5H)-one] | 1390 | 2.97 |  | >21 | > 30 |  |  |  |  | 
6 | Cc1ccc(NCc2cc3n(n2)[C@@H](C)CN(c2ccc(F)cc2)C3=O)cc1 [Compound 59, (S)-5-(4-fluorophenyl)-7-methyl-2-((p-tolylamino)methyl)-6,7-dihydropyrazolo[1,5-a]pyrazin-4(5H)-one] | 1740 | 3.14 | 48.9 | >5.7 | > 10 |  |  |  |  | 
7 | CC(Nc1ccc(Cl)cc1)c1cc2n(n1)CCN(c1ccc(F)cc1)C2=O (stereo not shown) [Compound 172, 2-(1-((4-chlorophenyl)amino)ethyl)-5-(4-fluorophenyl)-6,7-dihydropyrazolo[1,5-a]pyrazin-4(5H)-one] | 1550 | 1.29 |  | >19 | > 30 |  |  |  |  | 
8 | O=C1c2cc(CNc3cccc(C(F)(F)F)n3)nn2CCN1c1ccc(F)cc1 [Compound 166, 5-(4-fluorophenyl)-2-(((6-(trifluoromethyl)pyridin-2-yl)amino)methyl)-6,7-dihydropyrazolo[1,5-a]pyrazin-4(5H)-one] | 2350 | 2.06 | 50.6 | >4.2 | > 10 |  |  |  |  | 
9 | O=C1c2cc(CNc3cccc(F)c3)nn2CCN1c1ccc(F)cc1 [drawing 31 X = NH] |  |  |  |  |  |  | 1040 | 1 | 2.21 | 99
10 | COc1ccc(N(C)Cc2cc3n(n2)CCN(c2c(F)cccc2F)C3=O)cc1 [Compound 110, 5-(2,6-difluorophenyl)-2-(((4-methoxyphenyl)(methyl)amino)methyl)-6,7-dihydropyrazolo[1,5-a]pyrazin-4(5H)-one] | 1640 | 1.75 |  | >18 | > 30 |  |  |  |  | 
11 | C[C@@H]1CN(c2ccc(F)cc2)C(=O)c2cc(CNc3ccc(Cl)cc3)nn21 [Compound 60, (R)-2-(((4-chlorophenyl)amino)methyl)-5-(4-fluorophenyl)-7-methyl-6,7-dihydropyrazolo[1,5-a]pyrazin-4(5H)-one] | 1250 | 0.56 | 31.5 | >8.0 | > 10 |  |  |  |  | 
12 | COc1ccc(NCc2cc3n(n2)CCN(c2ccc(Cl)cc2)C3=O)cc1 [Compound 81, 5-(4-chlorophenyl)-2-(((4-methoxyphenyl)amino)methyl)-6,7-dihydropyrazolo[1,5-a]pyrazin-4(5H)-one] | 1360 | 15.4 |  | >22 | > 30 |  |  |  |  | 
13 | Cc1cccc(NCc2cc3n(n2)[C@H](C)CN(c2ccc(F)cc2)C3=O)c1 [Compound 50, (R)-5-(4-fluorophenyl)-7-methyl-2-((m-tolylamino)methyl)-6,7-dihydropyrazolo[1,5-a]pyrazin-4(5H)-one] | 3050 | 0.09 |  | >9.8 | > 30 |  |  |  |  | 
14 | O=C1c2cc(CNc3ncccc3F)nn2CCN1c1ccc(F)cc1 [Compound 165, 5-(4-fluorophenyl)-2-(((3-fluoropyridin-2-yl)amino)methyl)-6,7-dihydropyrazolo[1,5-a]pyrazin-4(5H)-one] | 2110 | 1.66 |  | >14 | > 30 |  |  |  |  | 
15 | Cc1nc(N2CCn3nc(CNc4ccc(OC(F)F)cc4F)cc3C2=O)cs1 [Compound 140, 2-(((4-(difluoromethoxy)-2-fluorophenyl)amino)methyl)-5-(2-methylthiazol-4-yl)-6,7-dihydropyrazolo[1,5-a]pyrazin-4(5H)-one] | 624 | 2.43 |  | >48 | > 30 |  |  |  |  | 
16 | COc1ccc(N(C)Cc2cc3n(n2)CCN(c2cccc(F)c2)C3=O)cc1 [Compound 101, 5-(3-fluorophenyl)-2-(((4-methoxyphenyl)(methyl)amino)methyl)-6,7-dihydropyrazolo[1,5-a]pyrazin-4(5H)-one] | 783 | 1.57 |  | >38 | > 30 |  |  |  |  | 
17 | COc1ccc(N(C)Cc2cc3n(n2)CCN(c2cc(F)cc(OC)c2)C3=O)cc1 [Compound 132, 5-(3-fluoro-5-methoxyphenyl)-2-(((4-methoxyphenyl)(methyl)amino)methyl)-6,7-dihydropyrazolo[1,5-a]pyrazin-4(5H)-one] | 1340 | 1.5 |  | >22 | > 30 |  |  |  |  | 
18 | Cc1cccnc1NCc1cc2n(n1)CCN(c1ccc(F)cc1)C2=O [Compound 160, 5-(4-fluorophenyl)-2-(((3-methylpyridin-2-yl)amino)methyl)-6,7-dihydropyrazolo[1,5-a]pyrazin-4(5H)-one] | 4700 | 0.18 |  | >6.3 | > 30 |  |  |  |  | 
19 | O=C1c2cc(CNc3cc(F)ccc3F)nn2CCN1c1ccc(F)cc1 [Compound 29, 2-(((2,5-difluorophenyl)amino)methyl)-5-(4-fluorophenyl)-6,7-dihydropyrazolo[1,5-a]pyrazin-4(5H)-one] | 508 | 2.45 | 87.5 | 3.23 | 1.64 |  |  |  |  | 

— US9676782B2, “Substituted pyrazolo[1,5-a]pyrazines as negative allosteric modulators of metabotropic glutamate receptor 3” (Vanderbilt University, priority 2014, dated 2017)
